Here are results for 26 molecules from patent US20240116922A1, “IMIDAZO[1,2-A]PYRIDINE DERIVATIVES AS IRAK4 INHIBITORS AND THEIR USE IN THE TREATMENT OF DISEASE” (BIOGEN MA INC., priority 2020, published 2024).

≈ marks a conversion by molar mass, not a printed value. Counter-ions that a name gives are not always drawn.

One series concerns the target MDR1 (Homo sapiens (Human), UniProt P08183). The series is described as follows: in vitro. Particulars: MDCK-MDR1.
The nature of series [1]: Kinetic solubility assay (CLND), pH 6.8. Type of series: physicochemical. The note with it: aqueous buffer, kinetic from dmso stock; potassium phosphate buffer pH 6.8, 2% DMSO, 24 hours at ambient temperature.
A further series addresses IRAK4 (Homo sapiens (Human), UniProt Q9NWZ3). Put plainly: IRAK4 MSD biochemical assay (2-hour 1 mM ATP). Particulars: 0.1 nM IRAK4, 1 mM ATP, 2 hour at room temperature.

Sequence of MDR1 (P08183 whole entry): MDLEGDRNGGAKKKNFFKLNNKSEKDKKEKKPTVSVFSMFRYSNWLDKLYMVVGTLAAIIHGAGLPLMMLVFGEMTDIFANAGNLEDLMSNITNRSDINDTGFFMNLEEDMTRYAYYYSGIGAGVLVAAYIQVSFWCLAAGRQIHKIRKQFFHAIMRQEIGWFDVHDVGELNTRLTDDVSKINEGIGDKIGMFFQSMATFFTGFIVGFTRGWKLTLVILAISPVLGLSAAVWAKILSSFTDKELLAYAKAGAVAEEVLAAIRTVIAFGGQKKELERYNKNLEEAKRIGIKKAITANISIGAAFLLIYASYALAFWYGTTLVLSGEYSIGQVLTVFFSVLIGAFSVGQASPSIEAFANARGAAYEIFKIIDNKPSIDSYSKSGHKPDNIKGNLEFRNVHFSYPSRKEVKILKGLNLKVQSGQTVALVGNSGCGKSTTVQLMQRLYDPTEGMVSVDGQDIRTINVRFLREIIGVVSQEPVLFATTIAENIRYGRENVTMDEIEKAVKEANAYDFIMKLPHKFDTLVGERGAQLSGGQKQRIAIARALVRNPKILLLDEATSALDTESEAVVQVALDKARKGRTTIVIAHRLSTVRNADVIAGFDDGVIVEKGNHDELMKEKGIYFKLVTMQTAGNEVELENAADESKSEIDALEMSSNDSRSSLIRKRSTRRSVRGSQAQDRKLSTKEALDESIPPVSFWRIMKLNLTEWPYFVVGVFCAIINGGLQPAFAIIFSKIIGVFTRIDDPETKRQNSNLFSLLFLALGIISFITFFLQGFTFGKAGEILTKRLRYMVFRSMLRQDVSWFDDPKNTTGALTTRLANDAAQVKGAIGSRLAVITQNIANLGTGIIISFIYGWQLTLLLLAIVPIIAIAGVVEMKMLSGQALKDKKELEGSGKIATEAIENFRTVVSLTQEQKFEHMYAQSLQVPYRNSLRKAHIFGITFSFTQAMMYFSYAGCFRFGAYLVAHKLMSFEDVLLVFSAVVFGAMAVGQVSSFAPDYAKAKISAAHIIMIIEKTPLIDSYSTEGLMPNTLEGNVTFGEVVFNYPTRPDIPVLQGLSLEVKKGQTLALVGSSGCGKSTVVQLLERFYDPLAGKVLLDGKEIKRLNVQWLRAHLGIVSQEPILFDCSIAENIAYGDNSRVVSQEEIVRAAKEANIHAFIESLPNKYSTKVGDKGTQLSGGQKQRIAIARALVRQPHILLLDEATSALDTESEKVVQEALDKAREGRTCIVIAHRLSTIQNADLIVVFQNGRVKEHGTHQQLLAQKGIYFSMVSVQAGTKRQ
Sequence of IRAK4 (Q9NWZ3 whole entry): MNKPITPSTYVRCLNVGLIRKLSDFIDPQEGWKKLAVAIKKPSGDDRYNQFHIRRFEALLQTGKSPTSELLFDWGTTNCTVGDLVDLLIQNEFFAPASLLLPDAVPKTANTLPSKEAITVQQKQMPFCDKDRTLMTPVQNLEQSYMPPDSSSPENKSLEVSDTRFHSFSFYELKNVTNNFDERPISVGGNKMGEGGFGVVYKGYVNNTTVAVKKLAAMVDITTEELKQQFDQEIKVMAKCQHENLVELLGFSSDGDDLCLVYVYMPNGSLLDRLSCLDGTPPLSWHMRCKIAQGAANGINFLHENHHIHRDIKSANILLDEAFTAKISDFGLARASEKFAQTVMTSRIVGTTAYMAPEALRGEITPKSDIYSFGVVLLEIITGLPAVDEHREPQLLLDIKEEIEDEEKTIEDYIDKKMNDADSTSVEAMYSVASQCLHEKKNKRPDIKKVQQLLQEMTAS

`CC(C)Oc1cc2nc([C@@]34CC[C@@](C)(C3)OC4)cn2cc1C(=O)Nc1cccn([C@H]2C[C@@H]2F)c1=O` (single isomer, unassigned) [Example 117]: the efflux ratio at 120 min, 1 μM at MDR1 was found to be 3.9. Moreover, the solubility (kinetic) at 24 h in series [1] was 23.1 µg/mL (≈ 48.1 µM). For the same molecule, the IC50 against IRAK4 amounted to 0.7 nM.
For the molecule `CC(C)Oc1c(C(=O)Nc2cccn([C@H]3C[C@@H]3C)c2=O)cn2cc(C34COC(C)(C3)C4)nc2c1F` [Example 146, 8-fluoro-7-isopropoxy-2-(1-methyl-2-oxabicyclo[2.1.1]hexan-4-yl)-N-(1-((1S,2S)-2-methylcyclopropyl)-2-oxo-1,2-dihydropyridin-3-yl)imidazo[1,2-a]pyridine-6-carboxamide], the efflux ratio at 120 min, 1 μM on MDR1 is 1.7. The solubility (kinetic) at 24 h in series [1] stood at 29.7 µg/mL (≈ 61.8 µM). In addition, at IRAK4, the IC50 was found to be 0.9 nM.
As for `CC12CC(c3cn4cc(C(=O)Nc5ccnn(C6CC6)c5=O)c(OC5CCC5)nc4n3)(CO1)C2` [Example 72, 7-cyclobutoxy-N-(2-cyclopropyl-3-oxo-2,3-dihydropyridazin-4-yl)-2-(1-methyl-2-oxabicyclo[2.1.1]hexan-4-yl)imidazo[1,2-a]pyrimidine-6-carboxamide], on MDR1, the efflux ratio at 120 min, 1 μM came to 1.7. Moreover, in series [1], the kinetic solubility at 24 h stood at 1.5 µg/mL (≈ 3.24 µM). The IC50 at IRAK4 was 4.2 nM.
In the case of `C[C@]12CC[C@](c3cn4cc(C(=O)Nc5cccn(C6CC6)c5=O)c(OC5CCC5)cc4n3)(CO1)C2` (single isomer, unassigned) [Example 26], the efflux ratio at 120 min, 1 μM on MDR1 amounted to 4.1. This molecule came in with a kinetic solubility at 24 h in series [1] of 65.3 µg/mL (≈ 138 µM). Besides, on IRAK4, the IC50 was found to be 0.7 nM.
In the case of `CC(C)Oc1cc2nc(C34COC(C3)C4)cn2cc1C(=O)Nc1cccn(C2CC2)c1=O` [Example 34, 2-(2-oxabicyclo[2.1.1]hexan-4-yl)-N-(1-cyclopropyl-2-oxo-1,2-dihydropyridin-3-yl)-7-isopropoxyimidazo[1,2-a]pyridine-6-carboxamide], the efflux ratio at 120 min, 1 μM on MDR1 was 11.1. Moreover, the kinetic solubility at 24 h in series [1] stood at 39.2 µg/mL (≈ 90.2 µM). At IRAK4, the IC50 was 1 nM.
Regarding `CC(C)Oc1cc2nc(C34COC(C)(C3)C4)cn2cc1C(=O)Nc1cccn([C@H]2C[C@H]2C)c1=O` [Example 134, 7-isopropoxy-2-(1-methyl-2-oxabicyclo[2.1.1]hexan-4-yl)-N-(1-((1S,2R)-2-methylcyclopropyl)-2-oxo-1,2-dihydropyridin-3-yl)imidazo[1,2-a]pyridine-6-carboxamide], at MDR1, the efflux ratio at 120 min, 1 μM is 4.4. For the same molecule, the kinetic solubility at 24 h in series [1] came out at 38.6 µg/mL (≈ 83.5 µM). The half-maximal inhibitory concentration (IC50) against IRAK4 worked out at 0.5 nM.
With `CC[C@H](C)Oc1cc2nc(C34COC(C)(C3)C4)cn2cc1C(=O)Nc1cccn([C@H]2C[C@H]2F)c1=O` (single isomer, unassigned) [Example 161], on MDR1, the efflux ratio at 120 min, 1 μM turned out to be 8.6. This molecule also displayed a kinetic solubility at 24 h in series [1] of 54.6 µg/mL (≈ 114 µM). Also, 0.1 nM corresponded to half-maximal inhibition against IRAK4 (IC50).
As to `CC12CC(c3cn4cc(C(=O)Nc5cccn(C6C[C@@H]6F)c5=O)c(OC5CCC5)nc4n3)(CO1)C2` (mixture of isomers) [Example 103, (rac)-Cis-7-cyclobutoxy-N-(1-(2-fluorocyclopropyl)-2-oxo-1,2-dihydropyridin-3-yl)-2-(1-methyl-2-oxabicyclo[2.1.1]hexan-4-yl)imidazo[1,2-a]pyrimidine-6-carboxamide], the efflux ratio at 120 min, 1 μM at MDR1 is 12.8. Further, in series [1], the kinetic solubility at 24 h amounted to 58.8 µg/mL (≈ 123 µM). Further, 0.4 nM corresponded to half-maximal inhibition against IRAK4 (IC50).
On the same counts, the results for `CC(C)Oc1cc2nc([C@@H]3COCCO3)cn2cc1C(=O)Nc1cccn(C2CC2)c1=O` (single isomer, unassigned) [Example 69] are 4.7, 6.1 µg/mL (≈ 13.9 µM) and 0.3 nM.
Turning to `CC(C)Oc1cc2nc([C@]34CC[C@](C)(C3)OC4)cn2cc1C(=O)Nc1cccn([C@@H]2C[C@H]2F)c1=O` (single isomer, unassigned) [Example 118], the efflux ratio at 120 min, 1 μM on MDR1 is 5.1. For the same molecule, in series [1], the kinetic solubility at 24 h came to 56.2 µg/mL (≈ 117 µM). At IRAK4, inhibition was half-maximal at 0.9 nM (IC50).
On the same counts, the results for `O=C(Nc1cccn([C@@H]2C[C@@H]2F)c1=O)c1cn2cc(C34COC(C3)C4)nc2nc1OC1CCC1` (racemic) [Example 86, (rac)-Cis-2-(2-oxabicyclo[2.1.1]hexan-4-yl)-7-cyclobutoxy-N-(1-(2-fluorocyclopropyl)-2-oxo-1,2-dihydropyridin-3-yl)imidazo[1,2-a]pyrimidine-6-carboxamide] are 0.9, 44.9 µg/mL (≈ 96.5 µM) and 0.8 nM.
Turning to `CC12CC(c3cn4cc(C(=O)Nc5cccn(C6CC6)c5=O)c(OC5CC5)cc4n3)(CO1)C2` [Example 104, 7-cyclopropoxy-N-(1-cyclopropyl-2-oxo-1,2-dihydropyridin-3-yl)-2-(1-methyl-2-oxabicyclo[2.1.1]hexan-4-yl)imidazo[1,2-a]pyridine-6-carboxamide], at MDR1, the efflux ratio at 120 min, 1 μM was determined as 4.3. This molecule also had a kinetic solubility at 24 h in series [1] of 74.5 µg/mL (≈ 167 µM). The molecule further had an IC50 against IRAK4 of 1.7 nM.
On the same counts, the results for `CC(C)Oc1cc2nc([C@@]34CC[C@@](C)(C3)OC4)cn2cc1C(=O)Nc1cccn(C2C[C@H]2C)c1=O` (stereo partly drawn) [Example 98, trans-7-isopropoxy-2-((1S,4R)-1-methyl-2-oxabicyclo[2.2.1]heptan-4-yl)-N-(1-(2-methylcyclopropyl)-2-oxo-1,2-dihydropyridin-3-yl)imidazo[1,2-a]pyridine-6-carboxamide] are 2.1, 89.7 µg/mL (≈ 188 µM) and 0.7 nM.
On the same counts, the results for `CC[C@@H](C)Oc1cc2nc([C@@]34CC[C@@](C)(C3)OC4)cn2cc1C(=O)Nc1cccn(C2CC2)c1=O` (single isomer, unassigned) [Example 21] are 3.2, 61.3 µg/mL (≈ 129 µM) and 0.9 nM.
For the molecule `CC[C@@H](C)Oc1nc2nc(C34COC(C)(C3)C4)cn2cc1C(=O)Nc1cccn([C@@H]2C[C@@H]2F)c1=O` (single isomer, unassigned) [Example 57], the efflux ratio at 120 min, 1 μM at MDR1 came to 7.9. 23 nM corresponded to half-maximal inhibition at IRAK4 (IC50).
As for `O=C(Nc1cccn([C@@H]2C[C@@H]2F)c1=O)c1cn2cc(C34COC(C3)C4)nc2nc1OC1CCC1` (single isomer, unassigned) [Example 166], on MDR1, the efflux ratio at 120 min, 1 μM came to 2.6. Besides, the IC50 at IRAK4 turned out to be 41 nM.
Consider `CC(C)Oc1nc2nc(C34COC(C)(C3)C4)cn2cc1C(=O)Nc1cccn([C@@H]2CC2(C)C)c1=O` (single isomer, unassigned) [Example 78], for which the efflux ratio at 120 min, 1 μM on MDR1 worked out at 2.1. This molecule displayed an IC50 against IRAK4 of 11 nM.
On to `CC[C@@H](C)Oc1nc2nc(C34CCC(CF)(C3)OC4)cn2cc1C(=O)Nc1cccn(C2CC2)c1=O` (stereo partly drawn) [Example 55, 7-((R)-sec-butoxy)-N-(1-cyclopropyl-2-oxo-1,2-dihydropyridin-3-yl)-2-(1-(fluoromethyl)-2-oxabicyclo[2.2.1]heptan-4-yl)imidazo[1,2-a]pyrimidine-6-carboxamide], for which, on MDR1, the efflux ratio at 120 min, 1 μM stood at 4.7. Besides, on IRAK4, the half-inhibitory concentration (IC50) turned out to be 1.1 nM.
Regarding `CC(C)Oc1nc2nc([C@]34CC[C@](C)(C3)OC4)cn2cc1C(=O)Nc1cccn([C@@H]2CC23CC3)c1=O` (single isomer, unassigned) [Example 153], at MDR1, the efflux ratio at 120 min, 1 μM was determined as 1.5. Further, at IRAK4, the IC50 is 1.7 nM.
In the case of `CC(C)Oc1c(C(=O)Nc2cccn([C@@H]3C[C@@H]3F)c2=O)cn2cc(C34COC(C)(C3)C4)nc2c1F` (racemic) [Example 91, (rac)-Cis-8-fluoro-N-(1-(2-fluorocyclopropyl)-2-oxo-1,2-dihydropyridin-3-yl)-7-isopropoxy-2-(1-methyl-2-oxabicyclo[2.1.1]hexan-4-yl)imidazo[1,2-a]pyridine-6-carboxamide], at MDR1, the efflux ratio at 120 min, 1 μM is 5.1. The molecule also yielded an IC50 on IRAK4 of 0.8 nM.
For `CC[C@H](C)Oc1nc2nc(C34COC(C)(C3)C4)cn2cc1C(=O)Nc1cccn([C@@H]2C[C@@H]2F)c1=O` (single isomer, unassigned) [Example 59], the efflux ratio at 120 min, 1 μM at MDR1 was found to be 9.4. For the same molecule, the IC50 at IRAK4 was 9 nM.
On to `CC(C)Oc1nc2nc([C@H]3CCCOC3)cn2cc1C(=O)Nc1cccn(C2CC2)c1=O` (single isomer, unassigned) [Example 107], for which the efflux ratio at 120 min, 1 μM on MDR1 was 3. Further, the IC50 at IRAK4 stood at 0.3 nM.
Take `CC(C)Oc1c(C(=O)Nc2cccn([C@@H]3C[C@@H]3F)c2=O)cn2cc([C@]34CC[C@](C)(C3)OC4)nc2c1F` (single isomer, unassigned) [Example 126]: the efflux ratio at 120 min, 1 μM on MDR1 was 4.4. For the same molecule, the midpoint of inhibition on IRAK4, the IC50, lay at 66.5 nM.
For the molecule `CC(C)Oc1cc2nc([C@]34CC[C@](C)(C3)OC4)cn2cc1C(=O)Nc1cccn([C@@H]2C[C@@H]2C)c1=O` [Example 181, 7-isopropoxy-2-((1R,4S)-1-methyl-2-oxabicyclo[2.2.1]heptan-4-yl)-N-(1-((1R,2S)-2-methylcyclopropyl)-2-oxo-1,2-dihydropyridin-3-yl)imidazo[1,2-a]pyridine-6-carboxamide trifluoroacetate], the efflux ratio at 120 min, 1 μM on MDR1 was determined as 5.3. Besides, the IC50 on IRAK4 stood at 24.9 nM.
Regarding `CC(C)Oc1c(C(=O)Nc2ccnn(C3CC3)c2=O)cn2cc(C34COC(C)(C3)C4)nc2c1F` [Example 73, N-(2-cyclopropyl-3-oxo-2,3-dihydropyridazin-4-yl)-8-fluoro-7-isopropoxy-2-(1-methyl-2-oxabicyclo[2.1.1]hexan-4-yl)imidazo[1,2-a]pyridine-6-carboxamide], on MDR1, the efflux ratio at 120 min, 1 μM came to 1. In addition, 14 nM corresponded to half-maximal inhibition against IRAK4 (IC50).
On the same counts, the results for `CC(C)Oc1cc2nc([C@@]34CC[C@@](C)(C3)OC4)cn2cc1C(=O)Nc1cccn([C@H]2C[C@H]2F)c1=O` (single isomer, unassigned) [Example 169] are 10.4 and 0.3 nM.
